Measured values reported in patent US20150203517A1, “Prodrugs of Compounds that Enhance Antifungal Activity and Compositions of Said Prodrugs” (priority 2014, published 2015).
Counter-ions that a name gives are not always drawn.

Experiments:
[1] = Saline solubility at 1.00 mg/mL and 0.50 mg/mL (with pH by indicator paper); type: physicochemical; details: for pH at 1.00 mg/mL of MGCD290 in saline: final concentration of hydroxamate 1 1.00 mg/mL, pH indicator paper; for solubility at 1 h: saline or isotonic, thermodynamic from solid, 1.00 mg/mL as hydroxamate 1, shaken 1 hour, centrifuged, soluble = no precipitate formed, read-out: Soluble at 1.00 mg/mL of MGCD290 (Y/N)
In short: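 Prodrug was weighed to give 1.00 mg/mL hydroxamate equivalent in saline, vortexed 1 h and centrifuged, and diluted to 0.50 mg/mL if it precipitated. pH was checked by indicator paper. Stability in solution diluted 1:1 with saline was followed by HPLC-UV at 0, 6 and 24 h.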

[2] = Saline solubility at 10.00 mg/mL, 5.00 mg/mL and 2.50 mg/mL (with pH by pH meter); type: physicochemical; details: saline or isotonic, thermodynamic from solid, concentration expressed as equivalent of Cpd 1, highest tested concentration soluble, read-out: Highest prodrug solubility in saline (equivalent of Cpd 1)
Method: The following procedures were used
Step 1. Sample preparation. An amount of the compound sample was precisely weighed to correspond to around 10 mg of the hydroxamate of compound 1, taking into account the mass of the leaving group and the salt factor if applicable. The sample was placed in a 16×125 mm glass screw cap tube. Saline was added so that the final concentration of hydroxamate 1 was 10.00 mg/mL. The tube was shaken for 1 hour on a Vortex apparatus then centrifuged at 3000 rpm (1800 rcf) for 5 minutes. If the compound example was soluble (no precipitate formed) then the pH was measured with a pH meter, and the procedure continued to step 2. If a precipitate formed then the sample was diluted with saline so that the final concentration of the hydroxamate of compound 1 became 5.00 mg/mL, and the shaking and centrifuging steps were repeated. If the compound example was soluble (no precipitate formed) then the pH was measured with a pH meter, and the procedure continued to step 2. If a precipitate formed then the sample was diluted with saline so that the final concentration of the hydroxamate of compound 1 became 2.50 mg/mL, and the shaking and centrifuging steps were repeated. If the compound example was soluble (no precipitate formed) then the pH was measured with a pH meter, and the procedure continued to step 2

[3] = Conversion of prodrugs to compound 1 in human plasma; type: in vitro ADME; details: human plasma (Na-Heparin treated), 37° C.
Method: (§1) Step 1. Sample preparation. A quantity of blank human plasma (Na-Heparin treated) was incubated at 37° C. for 30 minutes. An amount of the compound sample was precisely weighed to correspond to around 5.00 mg of the hydroxamate of compound 1, taking into account the mass of the leaving group and the salt factor if applicable. The sample was placed in a 16×125 mm glass screw cap tube. The incubated blank human plasma was added so that the final concentration of hydroxamate 1 was 1.00 mg/mL. The sample was sonicated for 30 seconds, shaken for 30 seconds on a Vortex apparatus, and run through the HPLC procedure of Step 2 to get a time point zero value. The samples were stored in an incubator at 37° C., and the HPLC analysis of Step 2 was repeated in 30 minutes and 1 hour.
(§2) Step 2. Protein precipitation and HPLC analysis of plasma. A 50 μL aliquot of plasma was taken in a 1.5 mL Eppendorf vial, to which was added 200 μL of MeCN. The vial was capped and shaken on a Vortex apparatus for 30 seconds, then centrifuged at 13000 rpm (15700 rcf) for five minutes. When centrifuging was complete, 100 μL of the supernatant was placed in an injection vial containing an insert, to which was added 100 μL of 0.1% formic acid in water. The vial was capped and shaken on a Vortex apparatus for 30 seconds, and the contents were injected into the HPLC-UV instrument, and a comparison was made of the retention time, peak areas and level of degradation (if any) using the GDADI50 method.
Step 3. Reference sample preparation. An amount of the compound sample was precisely weighed to correspond to around 5.00 mg of the hydroxamate of compound 1, taking into account the mass of the leaving group and the salt factor if applicable. The sample was placed in a 16×125 mm glass screw cap tube. A quantity of MeCN/H2O 50/50 v/v was added so that the final concentration of hydroxamate 1 was 1.00 mg/mL. An injection vial was filled with 100 μL of this sample stock solution and 900 μL of a solution of 40/60 MeCN/0.1% formic acid in water. The vial was capped and the contents were injected into the HPLC-UV instrument, and a comparison was made of the retention time, peak areas and level of degradation (if any) using the GDADI50 method.

[4] = Conversion of prodrugs to compound 1 in mouse plasma; type: in vitro ADME; details: mouse plasma (Na-Heparin treated); for Prodrug loss at 0.5 hr / Prodrug loss at 1 hr: 37° C.; for Prodrug solubility in plasma: equivalent to 1.00 mg/mL of compound 1, * = Plasma quickly became cloudy
Method: as §1, with “blank mouse” for “blank human”, “repeated at” for “repeated in”, “1 hour” for “1 hour.”
as §2

Row | pH at 1.00 mg/mL of MGCD290 in saline [1] | solubility at 1 h [1] [µg/mL] | solubility at 1 h [2] [µg/mL] | Prodrug loss at 0.5 hr [3] [%] | Prodrug loss at 1 hr [3] [%] | Prodrug loss at 0.5 hr [4] [%] | Prodrug loss at 1 hr [4] [%] | Prodrug solubility in plasma [4] | SMILES
1 | – | > 1000 | 1000 | 99.3 | 100.0 | 100 | 100 | Yes* | COCCOCCOCC(=O)NCCCC[C@H](NC(=O)COCCOCCOC)C(=O)NCCC(=O)ONC(=O)Cc1ccc(CCCCc2ccccc2)cc1 [Compound 63, (S)—N,N′-(6-Oxo-6-(3-oxo-3-(2-(4-(4-phenylbutyl)phenyl)acetamidooxy)propylamino)hexane-1,5-diyl)bis(2-(2-(2-methoxyethoxyl)ethoxy)acetamide)]
2 | 4.5-5 | > 1000 | 10000 | 98.6 | 99.4 | 100 | 100 | Yes* | COCCOCC(=O)NCCCC[C@H](NC(=O)COCCOC)C(=O)NCCC(=O)ONC(=O)Cc1ccc(CCCCc2ccccc2)cc1 [Compound 68]
3 | 4.5-5 | > 1000 | 1000 | 69.4 | 93.4 | 100 | 100 | Yes* | COCCOCC(=O)NCCCC[C@H](NC(=O)COCCOC)C(=O)NCCCC(=O)ONC(=O)Cc1ccc(CCCCc2ccccc2)cc1 [Compound 100]
4 | 4.5-5 | > 1000 | 10000 | 85.5 | 99.6 | 100 | 100 | Yes* | Cl.O=C(Cc1ccc(CCCCc2ccccc2)cc1)NOC(=O)CCC1CCNCC1 [Compound 110, 2-(4-(4-Phenylbutyl)phenyl)-N-(3-(piperidin-4-yl)propanoyloxy) acetamide hydrochloride]
5 | 4.5-5 | > 1000 | 10000 | 65.5 | 90.5 | 98 | 99 | Yes* | COCCOCCOCCOCCOCCOCC(=O)N1CCC(CCC(=O)ONC(=O)Cc2ccc(CCCCc3ccccc3)cc2)CC1 [Compound 111, N-(3-(1-2,5,8,11,14,17-Hexaoxanonadecanepiperidin-4-yl)propanoyloxy)-2-(4-(4-phenylbutyl)phenyl)acetamide]
6 | 4.5-5 | > 1000 | 10000 | 98.7 | 99.8 | 100 | 100 | Yes* | NCCNCC(=O)NCCC(=O)ONC(=O)Cc1ccc(CCCCc2ccccc2)cc1 [Compound 135, 2-(2-aminoethylamino)-N-(3-oxo-3-(2-(4-(4-phenylbutyl)phenyl)acetamidooxy)propyl) acetamide dihydrochloride]

Second part, the compound before the results:

Row | SMILES | pH at 1.00 mg/mL of MGCD290 in saline [1] | solubility at 1 h [1] [µg/mL] | solubility at 1 h [2] [µg/mL] | Prodrug loss at 0.5 hr [3] [%] | Prodrug loss at 1 hr [3] [%] | Prodrug loss at 0.5 hr [4] [%] | Prodrug loss at 1 hr [4] [%] | Prodrug solubility in plasma [4]
7 | NCCCC[C@H](N)C(=O)NCCC(=O)ONC(=O)Cc1ccc(CCCCc2ccccc2)cc1 [Compound 14, (S)-2,6-Diamino-N-(3-oxo-3-(2-(4-(4-phenylbutyl)phenyl)acetamidooxy)propyl)hexanamide di-hydrochloride] | 4-4.5 | > 1000 | 10000 | 100 | 100.0 | 100 | 100 | Yes*
8 | NCC1(C(=O)ONC(=O)Cc2ccc(CCCCc3ccccc3)cc2)CC1 [Compound 54, N-(1-(aminomethyl)cyclopropanecarbonyloxy)-2-(4-(4-phenylbutyl)phenyl)acetamide] | 4-4.5 | > 1000 | 2500 | 50.9 | 71.6 | 62.6 | 100 | Yes
9 | COCCOCCOCC(=O)NCCCC[C@H](NC(=O)COCCOCCOC)C(=O)N(C)CCCC(=O)ONC(=O)Cc1ccc(CCCCc2ccccc2)cc1 [Compound 64, (S)—N,N′-(6-(Methyl(4-oxo-4-(2-(4-(4-phenylbutyl)phenyl)acetamidooxy)butyl)amino)-6-oxohexane-1,5-diyl)bis(2-(2-(2-methoxyethoxyl)ethoxy)acetamide)] | 4.5-5 | > 1000 | 10000 | 78.7 | 100.0 | 100 | 100 | Yes
10 | COCCOCCOCC(=O)NCCCC[C@H](NC(=O)COCCOCCOC)C(=O)NCCCC(=O)ONC(=O)Cc1ccc(CCCCc2ccccc2)cc1 [Compound 99, (S)—N,N-(6-Oxo-6-(4-oxo-4-(2-(4-(4-phenylbutyl)phenyl)acetamidooxy)butylamino)hexane-1,5-diyl)bis(2-(2-(2-methoxyethoxyl)ethoxy)acetamide)] | 4.5-5 | > 1000 | 2500 | 22.7 | 89.1 | 100 | 100 | Yes*
11 | COCCOCCOCCOCCOCCOCC(=O)N1CCC(CCCC(=O)ONC(=O)Cc2ccc(CCCCc3ccccc3)cc2)CC1 [Compound 122] | 5.-5.5 | > 1000 | 10000 | 66.6 | 91.9 | 100 | 100 | Yes**
